The values that follow come from patent US11135234B2, “Effective aminoglycoside antibiotic for multidrug-resistant bacteria” (MICROBIAL CHEMISTRY RESEARCH FOUNDATION, priority 2015, dated 2021).

In one experiment the test system is S. aureus RN4220. Briefly: MIC, agar plate dilution method, S. aureus RN4220. Conditions: for minimal inhibitory concentration (MIC): S. aureus RN4220, Sensitive bacterium; for MIC: Staphylococcus aureus, RN4220, S. aureus RN4220, Sensitive bacterium, read-out: minimal inhibitory concentration (MIC). The format is cell-based, Staphylococcus aureus. The gist of the method:
(§1)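 MIC values, expressed in μg/mL, come from an agar plate dilution assay run as the Japan Society of Chemotherapy describes.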

Another experiment has as its system S. aureus RN4220/pMS520. Briefly: MIC, agar plate dilution method, S. aureus RN4220/pMS520. The experiment is classed as cell-based, Staphylococcus aureus. Conditions: for minimal inhibitory concentration (MIC): S. aureus RN4220/pMS520, MRSA; for MIC: Staphylococcus aureus, MRSA, read-out: minimal inhibitory concentration (MIC), S. aureus RN4220/pMS520, MRSA. The gist of the method:
as §1

The subject of the next experiment is S. aureus MF490. Briefly: MIC, agar plate dilution method, S. aureus MF490. The format is cell-based, Staphylococcus aureus. The settings on record: for minimal inhibitory concentration (MIC): S. aureus MF490, MRSA; for MIC: Staphylococcus aureus, MRSA, read-out: minimal inhibitory concentration (MIC). The gist of the method: as §1
Another experiment has as its system E. faecium ATCC19434. Kind of experiment: MIC, agar plate dilution method, E. faecium ATCC19434. The settings on record: for minimal inhibitory concentration (MIC): E. faecium ATCC19434; for MIC: Enterococcus faecium, ATCC19434, E. faecium ATCC19434, read-out: minimal inhibitory concentration (MIC). The experiment is classed as cell-based, Enterococcus faecium. The gist of the method: as §1

A further experiment has as its system E. coli JM109/pMW218. Kind of experiment: MIC, agar plate dilution method, E. coli JM109/pMW218. The format is cell-based, Escherichia coli. The settings on record: for minimal inhibitory concentration (MIC): E. coli JM109/pMW218, Sensitive bacterium; for MIC: Escherichia coli, JM109/PMW218, E. coli JM109/pMW218, Sensitive bacterium, read-out: minimal inhibitory concentration (MIC). The gist of the method: as §1

The test system of experiment [1] is K. pneumoniae ATCC BAA-1705. Kind of experiment: MIC, agar plate dilution method, K. pneumoniae ATCC BAA-1705. The settings on record: for minimal inhibitory concentration (MIC): K. pneumoniae ATCC BAA-1705, KPC-producing strain; for MIC: Klebsiella pneumoniae, ATCCBAA1705, K. pneumoniae ATCC BAA-1705, KPC-producing strain, read-out: minimal inhibitory concentration (MIC). The format is cell-based, Klebsiella pneumoniae. The gist of the method:
as §1

Experiment [2] relates to K. pneumoniae ATCC BAA-2146. Briefly: MIC, agar plate dilution method, K. pneumoniae ATCC BAA-2146. Conditions: for minimal inhibitory concentration (MIC): K. pneumoniae ATCC BAA-2146, NDM-producing strain; for MIC: Klebsiella pneumoniae, ATCCBAA2146, K. pneumoniae ATCC BAA-2146, NDM-producing strain, read-out: minimal inhibitory concentration (MIC). The experiment is classed as cell-based, Klebsiella pneumoniae. The gist of the method:
as §1

The test system of experiment [3] is A. baumannii ATCC BAA-1710. Briefly: MIC, agar plate dilution method, A. baumannii ATCC BAA-1710. The format is cell-based, Acinetobacter baumannii. Conditions: for minimal inhibitory concentration (MIC): A. baumannii ATCC BAA-1710, MDRA; for MIC: Acinetobacter baumannii, ATCCBAA1710, A. baumannii ATCC BAA-1710, MDRA, read-out: minimal inhibitory concentration (MIC). The gist of the method:
as §1

A further experiment has as its system S. marcescens TH-0447. Briefly: MIC, agar plate dilution method, S. marcescens TH-0447. The format is cell-based, Serratia marcescens. Conditions: for minimal inhibitory concentration (MIC): S. marcescens TH-0447, AMK-resistant; for MIC: Serratia marcescens, TH0447, S. marcescens TH-0447, AMK-resistant, read-out: minimal inhibitory concentration (MIC). The gist of the method:
as §1

The next experiment relates to S. marcescens GN6944. Kind of experiment: MIC, agar plate dilution method, S. marcescens GN6944. The settings on record: S. marcescens GN6944, GM-resistant; for MIC: Serratia marcescens, read-out: minimal inhibitory concentration (MIC). The format is cell-based, Serratia marcescens. The gist of the method:
as §1

For a further experiment, the system named is P. aeruginosa PAO1. Briefly: MIC, agar plate dilution method, P. aeruginosa PAO1. The format is cell-based, Pseudomonas aeruginosa. Conditions: for minimal inhibitory concentration (MIC): P. aeruginosa PAO1, Sensitive bacterium; for MIC: Pseudomonas aeruginosa, PAO1, P. aeruginosa PAO1, Sensitive bacterium, read-out: minimal inhibitory concentration (MIC). The gist of the method: as §1

A further experiment deals with P. aeruginosa PAO1/GN315. Briefly: MIC, agar plate dilution method, P. aeruginosa PAO1/GN315. The format is cell-based, Pseudomonas aeruginosa. The settings on record: for minimal inhibitory concentration (MIC): P. aeruginosa PAO1/GN315, AMK-resistant; for MIC: Pseudomonas aeruginosa, read-out: minimal inhibitory concentration (MIC), P. aeruginosa PAO1/GN315, AMK-resistant. The gist of the method:
as §1

Another experiment has as its system P. aeruginosa MSC17707. Briefly: MIC, agar plate dilution method, P. aeruginosa MSC17707. The settings on record: for minimal inhibitory concentration (MIC): P. aeruginosa MSC17707, AMK-resistant; for MIC: Pseudomonas aeruginosa, MSC17707, P. aeruginosa MSC17707, AMK-resistant, read-out: minimal inhibitory concentration (MIC). The format is cell-based, Pseudomonas aeruginosa. The gist of the method:
as §1

Another experiment has as its system P. aeruginosa MSC01035. Kind of experiment: MIC, agar plate dilution method, P. aeruginosa MSC01035. The format is cell-based, Pseudomonas aeruginosa. Conditions: P. aeruginosa MSC01035, ABK-resistant; for MIC: Pseudomonas aeruginosa, read-out: minimal inhibitory concentration (MIC). The gist of the method:
as §1

Molecules are shown by their SMILES. Converted amounts (≈) assume the structure as drawn.

`CNC1C(OC2OC(CO)C(N)C(O)C2O)OC2CC(N)C(OC3C(N)CC(N)C(O)C3N)OC2C1O` (centres unmarked) [Compound D2, 5-amino-5-deoxy-5-epiapramycin]: the “minimal inhibitory concentration (MIC)” value in the experiment with S. aureus RN4220 came out at 4 µg/mL (≈ 7.43 µM); with S. aureus RN4220/pMS520 it was 4 µg/mL (≈ 7.43 µM); in the experiment with S. aureus MF490 it was 8 µg/mL (≈ 14.9 µM); in the experiment with E. faecium ATCC19434, 32 µg/mL (≈ 59.4 µM); in the experiment with E. coli JM109/pMW218, 2 µg/mL (≈ 3.71 µM); in experiment [1], 2 µg/mL (≈ 3.71 µM). In addition, the “minimal inhibitory concentration (MIC)” value in experiment [2] stood at 2 µg/mL (≈ 3.71 µM); in [3], 8 µg/mL (≈ 14.9 µM); in the experiment with S. marcescens TH-0447, 8 µg/mL (≈ 14.9 µM); in the experiment on S. marcescens GN6944 it was 4 µg/mL (≈ 7.43 µM); with P. aeruginosa PAO1, 4 µg/mL (≈ 7.43 µM); with P. aeruginosa PAO1/GN315 it was 4 µg/mL (≈ 7.43 µM). Besides, the figures for the “minimal inhibitory concentration (MIC)” value in the experiment on P. aeruginosa MSC17707 and with P. aeruginosa MSC01035 were 8 µg/mL (≈ 14.9 µM) and 4 µg/mL (≈ 7.43 µM), respectively.
`CNC1C(O[C@H]2OC(CO)[C@@H](NC(CN)CN)[C@H](O)C2O)O[C@H]2CC(N)[C@@H](O[C@@H]3C(N)C[C@@H](N)C(O)[C@H]3O)OC2C1O` (some centres unmarked) [Compound A4-d, 4″-N-(1,3-diaminopropan-2-yl)apramycin]: the MIC came out at 2 µg/mL (≈ 3.27 µM) in the experiment with S. aureus RN4220; 2 µg/mL (≈ 3.27 µM) with S. aureus RN4220/pMS520; 4 µg/mL (≈ 6.54 µM) with S. aureus MF490; 8 µg/mL (≈ 13.1 µM) with E. faecium ATCC19434; 1 µg/mL (≈ 1.63 µM) in the experiment with E. coli JM109/pMW218; 2 µg/mL (≈ 3.27 µM) in [1]. Moreover, the MIC was found to be 1 µg/mL (≈ 1.63 µM) in experiment [2]; 4 µg/mL (≈ 6.54 µM) in experiment [3]; 8 µg/mL (≈ 13.1 µM) in the experiment with S. marcescens TH-0447; 4 µg/mL (≈ 6.54 µM) in the experiment with S. marcescens GN6944; 4 µg/mL (≈ 6.54 µM) with P. aeruginosa PAO1; 4 µg/mL (≈ 6.54 µM) with P. aeruginosa PAO1/GN315. Moreover, the MIC came out at 4 µg/mL (≈ 6.54 µM) in the experiment with P. aeruginosa MSC17707 and 8 µg/mL (≈ 13.1 µM) with P. aeruginosa MSC01035.
Take `CN[C@@H]1[C@@H](O[C@H]2O[C@H](CO)[C@@H](N)[C@@H](O)[C@H]2O)O[C@H]2C[C@@H](N)[C@@H](O[C@H]3[C@@H](O)[C@@H](O)[C@H](N)C[C@@H]3N)O[C@@H]2[C@@H]1O` [Compound P4, 5,3″-diepiapramycin]: the “minimal inhibitory concentration (MIC)” value with S. aureus RN4220 is 2 µg/mL (≈ 3.71 µM); in the experiment with S. aureus RN4220/pMS520, 2 µg/mL (≈ 3.71 µM); with S. aureus MF490, 4 µg/mL (≈ 7.41 µM); in the experiment on E. faecium ATCC19434 it was 16 µg/mL (≈ 29.7 µM); with E. coli JM109/pMW218, 2 µg/mL (≈ 3.71 µM); in [1] it was 2 µg/mL (≈ 3.71 µM). The “minimal inhibitory concentration (MIC)” value in experiment [2] was determined as 2 µg/mL (≈ 3.71 µM); in experiment [3], 8 µg/mL (≈ 14.8 µM); with S. marcescens TH-0447, 8 µg/mL (≈ 14.8 µM); in the experiment on S. marcescens GN6944, 8 µg/mL (≈ 14.8 µM); with P. aeruginosa PAO1 it was 4 µg/mL (≈ 7.41 µM); in the experiment with P. aeruginosa PAO1/GN315, 4 µg/mL (≈ 7.41 µM). Besides, the “minimal inhibitory concentration (MIC)” value in the experiment with P. aeruginosa MSC17707 is 4 µg/mL (≈ 7.41 µM); in the experiment on P. aeruginosa MSC01035, 8 µg/mL (≈ 14.8 µM).
For the compound `CNC1C(O[C@H]2OC(CO)[C@@H](NC(=N)N)CC2O)O[C@H]2CC(N)[C@@H](O[C@@H]3C(N)C[C@@H](N)C(O)[C@H]3F)OC2C1O` (stereo partly drawn) [Compound X4-b, 4″-deamino-5,3″-dideoxy-5-epi-5-fluoro-4″-guanidinoapramycin], the MIC came out at 1 µg/mL (≈ 1.76 µM) in the experiment on S. aureus RN4220; 1 µg/mL (≈ 1.76 µM) with S. aureus RN4220/pMS520; 4 µg/mL (≈ 7.05 µM) with S. aureus MF490; 8 µg/mL (≈ 14.1 µM) in the experiment with E. faecium ATCC19434; 1 µg/mL (≈ 1.76 µM) with E. coli JM109/pMW218; 1 µg/mL (≈ 1.76 µM) in experiment [1]. Further, the MIC turned out to be 1 µg/mL (≈ 1.76 µM) in experiment [2]; 16 µg/mL (≈ 28.2 µM) in [3]; 4 µg/mL (≈ 7.05 µM) with S. marcescens TH-0447; 4 µg/mL (≈ 7.05 µM) in the experiment on S. marcescens GN6944; 4 µg/mL (≈ 7.05 µM) in the experiment on P. aeruginosa PAO1; 8 µg/mL (≈ 14.1 µM) in the experiment on P. aeruginosa PAO1/GN315. Also, the MIC with P. aeruginosa MSC17707 amounted to 8 µg/mL (≈ 14.1 µM); in the experiment on P. aeruginosa MSC01035, 16 µg/mL (≈ 28.2 µM).
